Marks after values point to notes of the source that are not given here.
Key:
[1] = system: Staphylococcus aureus (ATCC 25923) infected human cornea; test: Antibacterial activity in ex vivo corneal infection model; format: cell-based; conditions: infected cornea incubated 30 min with 0.4% formulation, then 24 h; 10^−7 dilution; n=3
Protocol: Human corneas were incubated in antibiotic free DMEM media overnight at 37° C. […] After 24 h incubation at 37° C., the infected corneas were washed again with PBS and used for further studies. The infection-free corneas were used as controls (Pinnock, et. al, 2017). Infected cornea was washed, and a metal ring was placed on the corneoscleral button, creating a watertight seal. Drug formulations (0.4%) were added to the center of the ring and incubated for 0.5 and 1.5 h at 37° C. Later, the corneas were washed thoroughly with PBS to remove the excess formulation and incubated for 24 h at 37° C. The cornea was then homogenized, and the resulting suspension was serially diluted. A 10 μl sample was spotted on agar plates at 10^−5, 10^−6, 10^−7, 10^−8 dilutions for colony enumeration. The colonies were counted visually and expressed in colony forming units (CFU) using Equation 2. The antibacterial activity of drugs loaded in hydrogel formulations was evaluated against Staphylococcus aureus (ATCC 25923) infected human cornea (n=3).

[2] = In vitro drug release study, Franz diffusion cell with dialysis membrane; format: physicochemical; conditions: PBS pH 7.4, 33±1° C., 2 mg drug in donor
Protocol: In vitro release of drugs was performed using Franz diffusion cell apparatus (Permegear Inc., USA). […] The donor compartment was loaded with 2 mg of drug containing polymeric hydrogel or standard drug solution or marketed formulation. […] Samples were analyzed using HPLC method described above.

excised human cornea = system: excised human cornea
Protocol: HPLC analysis was performed using Shimadzu Prominence UFLC, LC-20 system (Shimadzu, Japan) with a C18 column (Shimpack GIST column, 5 μm, 4.6×250 mm). The mobile phase used for besifloxacin analysis comprised of a mixture of 0.5% triethylamine solution (pH adjusted to 3.0 with 10% ortho-phosphoric acid) and acetonitrile (ACN) (74:26, v/v) (Costa et al, 2014). […] The injection volume was 50 μl for all the standards and test solutions. The flow rate and column temperature were maintained at 1.0 ml/min and 25° C., respectively. […] The amount of drug release was determined using respective standard calibration curves.
Excised human cornea was washed with PBS and mounted between donor and receptor compartments with epithelial side facing donor chamber. Receptor medium contained PBS maintained at 37±1° C. temperature using heated water circulator unit. The donor compartment was charged with 0.4% of drug containing polymeric hydrogel, standard drug solution or marketed formulation. Samples (300 μl) were withdrawn from the receptor chamber at predetermined time intervals including 0.5, 1, 2, 4, 6, 12 and 24 h. Samples were analyzed by HPLC method described above. […] Corneal permeation parameters were calculated from cumulative amount of drug permeated vs. time profile. Flux (J) was calculated from the slope of the linear portion of cumulative amount of permeated vs. time profile. Lag time (ttag) was calculated by extrapolating the linear portion of the curve to time axis. Permeability coefficient (Kp) was calculated using Equation 1.

| Time to 100% release / complete diffusion across the membrane [2] [h] | Permeability coefficient (excised human cornea) | Diffusion coefficient (excised human cornea; human, 0.4 %) | Flux (excised human cornea; human, 0.4 %) [μg/cm^2/h] | Lag time (excised human cornea; human, 0.4 %) [h] | Corneal tissue concentration (excised human cornea; human, 0.5 h, 0.4 %) | Cumulative amount permeated (excised human cornea; human, 24 h, 0.4 %) [μg/cm^2] | Cumulative amount permeated across cornea (excised human cornea; human, 24 h, 0.4 %) [µg] | Structure (SMILES) | CFU/ml [1] |
| --- | --- | --- | --- | --- | --- | --- | --- | --- | --- |
| ≤ 10 | 15.57 ×10^−3, cm^2/h | 21.34 ×10^−3 | 36.80 ± 13.99 | 1.22 ± 0.39 | 398±50 μg/gram of tissue | 1267.42 ± 37.56 | 1267 ± 38 | N[C@@H]1CCCCN(c2c(F)cc3c(=O)c(C(=O)O)cn(C4CC4)c3c2Cl)C1 [Besifloxacin Std., besifloxacin] | 2.5 ± 0.82 CFU/ml (×10^9) |
| – | – | – | – | – | – | – | – | C[C@H]1COc2c(N3CCN(C)CC3)c(F)cc3c(=O)c(C(=O)O)cn1c23 [Levofloxacin Std., levofloxacin] | 8.3 ± 5.10 CFU/ml (×10^9) |
